# Active and inactive are the calls of the source. No cut-off for these calls is given here.
# How the values were obtained:
# Moraxella catarrhalis = assay: Antibacterial activity against 10^4 to 10^5 CFU Moraxella catarrhalis after 18 hrs by CLSI 2-fold agar dilution method; type: functional
# Staphylococcus aureus [1] = assay: Antibacterial activity against methicillin-susceptible Staphylococcus aureus Giorgio assessed as bacteriostatic at MIC after 24 hrs by […] method; type: functional, organism-based
# Staphylococcus aureus [2] = assay: Antibacterial activity against methicillin-susceptible Staphylococcus aureus Giorgio assessed as bacteriostatic at 4 times MIC after 24 hrs by […] method; type: functional, organism-based
# Streptococcus pneumoniae [3] = assay: Antibacterial activity against 10^4 to 10^5 CFU Streptococcus pneumoniae after 18 hrs by CLSI 2-fold agar dilution method; type: functional
# Streptococcus pneumoniae [4] = assay: Antibacterial activity against 1 x 10^4 CFU Streptococcus pneumoniae ATCC 6305 after 18 hrs by CLSI 2-fold agar dilution method; type: functional; conditions: ATCC 6305, 18 h
# Streptococcus pyogenes = assay: Antibacterial activity against 10^4 to 10^5 CFU Streptococcus pyogenes after 18 hrs by CLSI 2-fold agar dilution method; type: functional
# Staphylococcus aureus [5] = assay: Antibacterial activity against 1 x 10^7 CFU methicillin-susceptible Staphylococcus aureus Giorgio after 18 hrs by CLSI 2-fold agar dilution method; type: functional
# Enterococcus faecalis [6] = assay: Antibacterial activity against 10^4 to 10^5 CFU Enterococcus faecalis after 18 hrs by CLSI 2-fold agar dilution method; type: functional
# Enterococcus = assay: Antibacterial activity against 10^4 to 10^5 CFU vancomycin-resistant Enterococcus after 18 hrs by CLSI 2-fold agar dilution method; type: functional
# Staphylococcus aureus [7] = assay: Antibacterial activity against methicillin-resistant Staphylococcus aureus p125 assessed as bacteriostatic at 2 times MIC after 24 hrs by […] method; type: functional, organism-based
# Staphylococcus [8] = assay: Antibacterial activity against 10^4 to 10^5 CFU methicillin-susceptible coagulase-negative Staphylococcus after 18 hrs by CLSI 2-fold agar dilution method; type: functional
# Staphylococcus aureus [9] = assay: Antibacterial activity against methicillin-resistant Staphylococcus aureus p125 assessed as bacteriostatic at 8 times MIC after 24 hrs by […] method; type: functional, organism-based
# Staphylococcus aureus [10] = assay: Antibacterial activity against methicillin-susceptible Staphylococcus aureus Giorgio assessed as bacteriostatic at 2 times MIC after 24 hrs by […] method; type: functional, organism-based
# Staphylococcus aureus [11] = assay: Antibacterial activity against 10^4 to 10^5 CFU methicillin-susceptible Staphylococcus aureus after 18 hrs by CLSI 2-fold agar dilution method; type: functional
# Staphylococcus aureus [12] = assay: Antibacterial activity against methicillin-susceptible Staphylococcus aureus Giorgio assessed as bacterial regrowth at 8 times MIC after 24 hrs by […] method; type: functional, organism-based
# Staphylococcus aureus [13] = assay: Antibacterial activity against methicillin-resistant Staphylococcus aureus p125 assessed as bacteriostatic at 4 times MIC after 24 hrs by […] method; type: functional, organism-based
# Staphylococcus aureus [14] = assay: Antibacterial activity against methicillin-susceptible Staphylococcus aureus Giorgio assessed as bacterial regrowth at 4 times MIC after 24 hrs by […] method; type: functional, organism-based
# Staphylococcus aureus [15] = assay: Antibacterial activity against 1 x 10^8 CFU methicillin-resistant Staphylococcus aureus p125 after 18 hrs by CLSI 2-fold agar dilution method; type: functional; conditions: p125, 18 h
# Staphylococcus aureus [16] = assay: Antibacterial activity against methicillin-resistant Staphylococcus aureus p125 assessed as bacteriostatic at MIC after 24 hrs by […] method; type: functional, organism-based
# Staphylococcus [17] = assay: Antibacterial activity against 10^4 to 10^5 CFU methicillin-resistant coagulase-negative Staphylococcus after 18 hrs by CLSI 2-fold agar dilution method; type: functional
# Haemophilus influenzae [18] = assay: Antibacterial activity against 10^4 to 10^5 CFU Haemophilus influenzae after 18 hrs by CLSI 2-fold agar dilution method; type: functional
# Enterococcus faecalis [19] = assay: Antibacterial activity against 2 x 10^8 CFU Enterococcus faecalis u810 after 18 hrs by CLSI 2-fold agar dilution method; type: functional; conditions: u810, 18 h
# Staphylococcus aureus [20] = assay: Antibacterial activity against 10^4 to 10^5 CFU methicillin-resistant Staphylococcus aureus after 18 hrs by CLSI 2-fold agar dilution method; type: functional
# Haemophilus influenzae [21] = assay: Antibacterial activity against 7.5 x 10^8 CFU Haemophilus influenzae hd2 after 18 hrs by CLSI 2-fold agar dilution method; type: functional; conditions: hd2, 18 h
# Staphylococcus aureus [22] = assay: Antibacterial activity against methicillin-resistant Staphylococcus aureus p125 assessed as bacterial regrowth at 8 times MIC after 24 hrs by […] method; type: functional, organism-based
# Staphylococcus aureus [23] = assay: Antibacterial activity against methicillin-resistant Staphylococcus aureus p125 assessed as bacterial regrowth at 4 times MIC after 24 hrs by […] method; type: functional, organism-based
# Enterococcus faecium = assay: Antibacterial activity against 10^4 to 10^5 CFU Enterococcus faecium after 18 hrs by CLSI 2-fold agar dilution method; type: functional
# Staphylococcus aureus [24] = assay: Antibacterial activity against methicillin-susceptible Staphylococcus aureus Giorgio assessed as bacteriostatic at 8 times MIC after 24 hrs by […] method; type: functional, organism-based
# Haemophilus influenzae [25] = assay: Antibacterial activity against 7.5 x 10^8 CFU Haemophilus influenzae hd2 infected in ICR mouse systemic infection model assessed as mouse protection administered orally twice after 1 and 4 hrs post infection measured after 48 hrs; type: functional
structure (smiles),measurement,setting,value
CN1CCN(c2ccc(N3C[C@H](CO)OC3=O)cc2F)C=N1 [DELPAZOLID],MIC50,Moraxella catarrhalis,4 µg/mL
same,MIC90,Moraxella catarrhalis,8 µg/mL
same,Activity,Staphylococcus aureus [1],Active
same,Activity,Staphylococcus aureus [2],Active
same,MIC50,Streptococcus pneumoniae [3],0.5 µg/mL
same,MIC90,Streptococcus pneumoniae [3],1 µg/mL
same,MIC,Streptococcus pneumoniae [4],0.5 µg/mL
same,MIC50,Streptococcus pyogenes,1 µg/mL
same,MIC90,Streptococcus pyogenes,2 µg/mL
same,MIC,Staphylococcus aureus [5],1 µg/mL
same,MIC50,Enterococcus faecalis [6],2 µg/mL
same,MIC90,Enterococcus faecalis [6],2 µg/mL
same,MIC,Enterococcus,1 µg/mL
same,MIC50,Enterococcus,1 µg/mL
same,MIC90,Enterococcus,1 µg/mL
same,Activity,Staphylococcus aureus [7],Active
same,MIC,Staphylococcus [8],0.5 µg/mL
same,MIC50,Staphylococcus [8],0.5 µg/mL
same,MIC90,Staphylococcus [8],0.5 µg/mL
same,Activity,Staphylococcus aureus [9],Active
same,Activity,Staphylococcus aureus [10],Active
same,MIC50,Staphylococcus aureus [11],1 µg/mL
same,MIC90,Staphylococcus aureus [11],2 µg/mL
same,Activity,Staphylococcus aureus [12],Active
same,Activity,Staphylococcus aureus [13],Active
same,Activity,Staphylococcus aureus [14],Active
same,MIC,Staphylococcus aureus [15],1 µg/mL
same,Activity,Staphylococcus aureus [16],Active
same,MIC,Staphylococcus [17],0.5 µg/mL
same,MIC50,Staphylococcus [17],0.5 µg/mL
same,MIC90,Staphylococcus [17],0.5 µg/mL
same,MIC50,Haemophilus influenzae [18],8 µg/mL
same,MIC90,Haemophilus influenzae [18],8 µg/mL
same,MIC,Enterococcus faecalis [19],2 µg/mL
same,MIC50,Staphylococcus aureus [20],1 µg/mL
same,MIC90,Staphylococcus aureus [20],2 µg/mL
same,MIC,Haemophilus influenzae [21],8 µg/mL
same,Activity,Staphylococcus aureus [22],Active
same,Activity,Staphylococcus aureus [23],Active
same,MIC50,Enterococcus faecium,2 µg/mL
same,MIC90,Enterococcus faecium,2 µg/mL
same,Activity,Staphylococcus aureus [24],Active
CC[C@H]1OC(=O)[C@H](C)[C@@H](O[C@H]2C[C@@](C)(OC)[C@@H](O)[C@H](C)O2)[C@H](C)[C@@H](O[C@@H]2O[C@H](C)C[C@H](N(C)C)[C@H]2O)[C@](C)(O)C[C@@H](C)C(=O)[C@H](C)[C@@H](O)[C@]1(C)O [ERYTHROMYCIN],MIC50,Streptococcus pneumoniae [3],64 µg/mL
same,MIC90,Streptococcus pneumoniae [3],> 64 µg/mL
same,MIC50,Streptococcus pyogenes,0.06 µg/mL
same,MIC90,Streptococcus pyogenes,2 µg/mL
same,MIC50,Enterococcus faecalis [6],> 64 µg/mL
same,MIC90,Enterococcus faecalis [6],> 64 µg/mL
same,MIC50,Enterococcus,> 64 µg/mL
same,MIC90,Enterococcus,> 64 µg/mL
same,MIC50,Staphylococcus [8],0.25 µg/mL
same,MIC90,Staphylococcus [8],> 64 µg/mL
same,MIC50,Staphylococcus aureus [11],0.25 µg/mL
same,MIC90,Staphylococcus aureus [11],> 64 µg/mL
same,MIC50,Staphylococcus [17],> 64 µg/mL
same,MIC,Haemophilus influenzae [18],64 µg/mL
same,MIC50,Haemophilus influenzae [18],64 µg/mL
same,MIC90,Haemophilus influenzae [18],> 64 µg/mL
same,MIC50,Staphylococcus aureus [20],> 64 µg/mL
same,MIC50,Enterococcus faecium,> 64 µg/mL
same,MIC90,Enterococcus faecium,> 64 µg/mL
CO/N=C1\CN(c2nc3c(cc2F)c(=O)c(C(=O)O)cn3C2CC2)CC1CN (stereo not given) [GEMIFLOXACIN],MIC50,Moraxella catarrhalis,< 0.008 µg/mL
same,MIC90,Moraxella catarrhalis,< 0.008 µg/mL
same,MIC50,Streptococcus pneumoniae [3],0.03 µg/mL
same,MIC90,Streptococcus pneumoniae [3],0.06 µg/mL
same,MIC50,Streptococcus pyogenes,0.03 µg/mL
same,MIC90,Streptococcus pyogenes,0.06 µg/mL
same,MIC50,Enterococcus faecalis [6],0.125 µg/mL
same,MIC90,Enterococcus faecalis [6],4 µg/mL
same,MIC50,Enterococcus,0.5 µg/mL
same,MIC90,Enterococcus,2 µg/mL
same,MIC50,Staphylococcus [8],0.015 µg/mL
same,MIC90,Staphylococcus [8],0.5 µg/mL
same,MIC50,Staphylococcus aureus [11],0.015 µg/mL
same,MIC90,Staphylococcus aureus [11],0.06 µg/mL
same,MIC50,Staphylococcus [17],0.5 µg/mL
same,MIC90,Staphylococcus [17],1 µg/mL
same,MIC,Haemophilus influenzae [18],0.008 µg/mL
same,MIC50,Haemophilus influenzae [18],0.008 µg/mL
same,MIC90,Haemophilus influenzae [18],0.008 µg/mL
same,MIC50,Staphylococcus aureus [20],2 µg/mL
same,MIC90,Staphylococcus aureus [20],64 µg/mL
same,MIC50,Enterococcus faecium,2 µg/mL
same,MIC90,Enterococcus faecium,16 µg/mL
CC(=O)NC[C@H]1CN(c2ccc(N3CCOCC3)c(F)c2)C(=O)O1 [LINEZOLID],MIC50,Moraxella catarrhalis,8 µg/mL
same,MIC90,Moraxella catarrhalis,16 µg/mL
same,MIC50,Streptococcus pneumoniae [3],1 µg/mL
same,MIC90,Streptococcus pneumoniae [3],1 µg/mL
same,MIC50,Streptococcus pyogenes,2 µg/mL
same,MIC90,Streptococcus pyogenes,2 µg/mL
same,MIC,Haemophilus influenzae [25],16 µg/mL
same,MIC50,Enterococcus faecalis [6],2 µg/mL
same,MIC90,Enterococcus faecalis [6],2 µg/mL
same,MIC,Enterococcus,2 µg/mL
same,MIC50,Enterococcus,2 µg/mL
same,MIC90,Enterococcus,2 µg/mL
same,MIC,Staphylococcus [8],1 µg/mL
same,MIC50,Staphylococcus [8],1 µg/mL
same,MIC90,Staphylococcus [8],2 µg/mL
same,MIC50,Staphylococcus aureus [11],2 µg/mL
same,MIC90,Staphylococcus aureus [11],2 µg/mL
same,MIC,Staphylococcus [17],1 µg/mL
same,MIC50,Staphylococcus [17],1 µg/mL
same,MIC90,Staphylococcus [17],1 µg/mL
same,MIC50,Staphylococcus aureus [20],2 µg/mL
same,MIC90,Staphylococcus aureus [20],2 µg/mL
same,MIC50,Enterococcus faecium,2 µg/mL
same,MIC90,Enterococcus faecium,2 µg/mL
Cc1onc(-c2ccccc2)c1C(=O)N[C@@H]1C(=O)N2[C@@H]1SC(C)(C)[C@@H]2C(=O)O [OXACILLIN],MIC50,Moraxella catarrhalis,0.06 µg/mL
same,MIC90,Moraxella catarrhalis,0.06 µg/mL
same,MIC50,Streptococcus pneumoniae [3],8 µg/mL
same,MIC90,Streptococcus pneumoniae [3],16 µg/mL
same,MIC50,Streptococcus pyogenes,0.5 µg/mL
same,MIC90,Streptococcus pyogenes,8 µg/mL
same,MIC50,Enterococcus faecalis [6],16 µg/mL
same,MIC90,Enterococcus faecalis [6],> 64 µg/mL
same,MIC50,Enterococcus,> 64 µg/mL
same,MIC90,Enterococcus,> 64 µg/mL
same,MIC50,Staphylococcus [8],0.125 µg/mL
same,MIC90,Staphylococcus [8],1 µg/mL
same,MIC50,Staphylococcus aureus [11],0.25 µg/mL
same,MIC90,Staphylococcus aureus [11],0.5 µg/mL
same,MIC50,Staphylococcus [17],> 64 µg/mL
same,MIC90,Staphylococcus [17],> 64 µg/mL
same,MIC50,Haemophilus influenzae [18],< 0.008 µg/mL
same,MIC90,Haemophilus influenzae [18],0.015 µg/mL
same,MIC50,Staphylococcus aureus [20],> 64 µg/mL
same,MIC90,Staphylococcus aureus [20],> 64 µg/mL
same,MIC50,Enterococcus faecium,> 64 µg/mL
same,MIC90,Enterococcus faecium,> 64 µg/mL
CN[C@H](CC(C)C)C(=O)N[C@H]1C(=O)N[C@@H](CC(N)=O)C(=O)N[C@H]2C(=O)N[C@H]3C(=O)N[C@H](C(=O)N[C@H](C(=O)O)c4cc(O)cc(O)c4-c4cc3ccc4O)[C@H](O)c3ccc(c(Cl)c3)Oc3cc2cc(c3O[C@@H]2O[C@H](CO)[C@@H](O)[C@H](O)[C@H]2O[C@H]2C[C@](C)(N)[C@H](O)[C@H](C)O2)Oc2ccc(cc2Cl)[C@H]1O [VANCOMYCIN],MIC50,Streptococcus pneumoniae [3],0.5 µg/mL
same,MIC90,Streptococcus pneumoniae [3],1 µg/mL
same,MIC50,Streptococcus pyogenes,1 µg/mL
same,MIC90,Streptococcus pyogenes,1 µg/mL
same,MIC50,Enterococcus faecalis [6],2 µg/mL
same,MIC90,Enterococcus faecalis [6],4 µg/mL
same,MIC50,Enterococcus,> 64 µg/mL
same,MIC90,Enterococcus,> 64 µg/mL
same,MIC50,Staphylococcus [8],2 µg/mL
same,MIC90,Staphylococcus [8],4 µg/mL
same,MIC50,Staphylococcus aureus [11],1 µg/mL
same,MIC90,Staphylococcus aureus [11],1 µg/mL
same,MIC50,Staphylococcus [17],2 µg/mL
same,MIC90,Staphylococcus [17],2 µg/mL
same,MIC50,Haemophilus influenzae [18],> 64 µg/mL
same,MIC90,Haemophilus influenzae [18],> 64 µg/mL
same,MIC50,Staphylococcus aureus [20],1 µg/mL
same,MIC90,Staphylococcus aureus [20],2 µg/mL
same,MIC50,Enterococcus faecium,1 µg/mL
same,MIC90,Enterococcus faecium,2 µg/mL
